Assay results taken from patent US10183032B2, “Methods for treating bacterial infection” (Ball State Innovation Corporation, priority 2012, dated 2019).
“Also recorded” adds a separate entry of the source.

Tests used:
Staphylococcus aureus [1] = assay: Intracellular S. aureus population in HUVEC 48 hours post infection, CFU; assay type: cell-based; conditions: HUVEC pretreated 18 hours (1.0 μM FIG. 7; 10 μM FIG. 11), infected 1 hour
Method: FIG. 7 is a graph illustrating suppression of intracellular population sustained over time. Human umbilical vein endothelial cells (HUVEC) were pretreated (1.0 μM, 18 hours) with the vehicle control dimethyl sulfoxide (DMSO) or ML 141 and infected with Staphylococcus aureus (1 hour). At 48 hours, intracellular bacteria were recovered, serial dilutions incubated on tryptic soy agar and colonies enumerated. Data are presented as % control, ±SEM (*less than vehicle control; p≤0.05 by t-test; n=3-5/treatment).
FIG. 11 is a graph illustrating suppression of intracellular population sustained over time. […]
(§1) Two days prior to the assay, TSB is inoculated with S. aureus (American Type Culture Collection #29213) and incubated overnight (225 rpm, 37° C.). […] To detect the level of infection using flow cytometry, cells that have been infected with fluorescently-labeled bacteria are washed extensively with PBS, lifted from 96-well plate by incubation with trypsin, washed extensively in FACS buffer (2% BSA/0.1% sodium azide/PBS), fixed (FACS buffer containing 0.74% formaldehyde), and are counted using an Accuri flow cytometer (BD, Franklin Lakes, N.J.). They are also lifted from culture dishes using cell scrapers, pelleted, fixed (1% BSA/0.74% formaldehyde/PBS), and are counted using an Accuri flow cytometer. […]

Staphylococcus aureus [2] = assay: Assessment of bactericidal activity (DMEM, 10% fetal bovine serum); assay type: cell-based; conditions: 3.2 × 10^6 CFU S. aureus, 1 h in DMEM with 10% fetal bovine serum; head prints 20 mM
actin stress fibers = assay: Actin stress fibers in HUVEC during S. pyogenes infection; assay type: cell-based, human; conditions: ML 141 10 μM, 18-20 h, MOI 30, 2 h
Method: FIG. 13 is an image depicting ML 141 decreasing actin stress fiber depolymerization during infection. HUVEC were incubated with vehicle control dimethyl sulfoxide (DMSO) or with ML 141 (10 μM) 18-20 h prior to infection with Streptococcus pyogenes at a multiplicity of infection of 30 (2 h). Actin was detected using Alexa Fluor 488 phalloidin. Data are presented as the percentage of HUVEC with no detectable actin stress fibers. 100-200 cells/treatment were evaluated from randomly selected fields. Scale bar is 50 μm (P<0.05 by χ^2 test of association).
For actin assessment, HUVEC were seeded at 6×10^5 cells/ml in 35 mm glass-bottom dishes (MatTek, Ashland, Mass.) that had been coated with Attachment Factor. HUVEC were pretreated with ML 141 or with DMSO and treated with gentamicin as described above. HUVEC were washed three times with PBS and fixed with 4% paraformaldehyde for 30 min, RT. HUVEC were gently washed four times with PBS, permeabilized and blocked with 1% BSA/0.1% Triton (Sigma-Aldrich, T8787). HUVEC were gently washed four times with PBS, probed for actin with Alexa Fluor 488 phalloidin (1:40, Life Technologies, A12379) in PBS (30 min, RT) and washed three more times with PBS. […] A total of 200 HUVEC were assessed for actin stress fiber disassembly from randomly selected fields-of-view. […]

Staphylococcus aureus [3] = assay: S. aureus invasion of serum-starved RAW 264.7 cells, CFU recovery; assay type: cell-based; conditions: treatment 1 hour, serum-starved conditions, 10 μM
Method: FIG. 5 is a graph illustrating ML 141 inhibiting invasion with shorter duration exposure under serum starved conditions. RAW 264.7 cells were serum-starved overnight then pretreated for 1 hour with the vehicle control dimethyl sulfoxide (DMSO) or with ML 141 (10 μM). Following infection with Staphylococcus aureus (1 hour), extracellular bacteria were eliminated using the antimicrobials gentamicin and lysostaphin (45 minutes), and intracellular bacteria recovered by permeabilizing the host cells. Serial dilutions of the recovered intracellular bacteria were incubated on tryptic soy agar, colonies enumerated, and colony forming units (CFU)/ml calculated (*less than vehicle control; p≤0.05 by Student's t-test; n=3/treatment). […]
as §1, with “N.J.).” for “N.J.). They are also lifted from culture dishes using cell scrapers, pelleted, fixed (1% BSA/0.74% formaldehyde/PBS), and are counted using an Accuri flow cytometer.”

Which results are given for `COc1ccc(C2CC(c3ccccc3)=NN2c2ccc(S(N)(=O)=O)cc2)cc1` (stereo not shown) [ML 141, 4-[3-(4-methoxyphenyl)-5-phenyl-3,4-dihydropyrazol-2-yl]benzenesulfonamide]?
viable intracellular bacteria recovered 48 hours post-infection (Staphylococcus aureus [1]): diminished the number of viable bacteria recovered; also recorded: lower; CFU/mL (×10^9 ± SEM), Compound (Staphylococcus aureus [2]): 0.9 ± 0.09 ×10^9 CFU/mL; reordering of actin stress fibers during S. pyogenes infection (actin stress fibers): less reordering of actin stress fibers; inhibition of invasion, shorter exposure (Staphylococcus aureus [3]): Inhibition is detectable
